The text below walks through data of patent US6608086B2, “Dihydropyridines and new uses thereof” (Synaptic Pharmaceutical Corporation, priority 1993, dated 2003).

Series [1] concerns the target T1, α1A Human Adrenergic Receptor (Homo sapiens, UniProt P25100).
T1 construct: The entire coding region of α1A (1719 bp); expressed in transfected cells
T1 sequence (P25100 1-572): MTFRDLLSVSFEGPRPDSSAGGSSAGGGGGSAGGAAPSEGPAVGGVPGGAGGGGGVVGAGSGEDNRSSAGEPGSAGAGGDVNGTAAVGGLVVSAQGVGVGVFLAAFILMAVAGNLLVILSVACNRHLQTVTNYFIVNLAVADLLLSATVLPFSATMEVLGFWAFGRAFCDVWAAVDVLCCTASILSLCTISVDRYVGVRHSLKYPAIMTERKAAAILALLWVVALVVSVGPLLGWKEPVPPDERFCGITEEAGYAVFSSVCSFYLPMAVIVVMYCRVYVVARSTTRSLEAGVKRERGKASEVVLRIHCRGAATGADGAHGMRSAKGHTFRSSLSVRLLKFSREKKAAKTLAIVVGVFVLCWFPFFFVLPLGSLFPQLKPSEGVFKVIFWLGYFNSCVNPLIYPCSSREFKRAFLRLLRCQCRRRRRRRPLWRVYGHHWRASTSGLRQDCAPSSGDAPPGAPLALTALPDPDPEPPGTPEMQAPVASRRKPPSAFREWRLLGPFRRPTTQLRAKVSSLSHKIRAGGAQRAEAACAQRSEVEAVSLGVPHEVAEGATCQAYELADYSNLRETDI
Put plainly: Radioligand binding, [3H]prazosin, cloned human α1A adrenergic receptor. Conditions: [3H]prazosin. Here is the method:
(§1) The protocols for these experiments are given below.
(§2) These cell lines were prepared by transfecting the cloned cDNA or cloned genomic DNA or constructs containing both genomic DNA and cDNA encoding the human α-adrenergic receptors as follows:
α1A Human Adrenergic Receptor:
The cells were grown, in a controlled environment (37° C., 5% CO2), as monolayers in Dulbecco's modified Eagle's Medium (GIBCO, Grand Island, N.Y.) containing 25 mM glucose and supplemented with 10% bovine calf serum, 100 units/ml penicillin g, and 100 μg/ml streptomycin sulfate.
(§3) Radioligand Binding Assays:
(§4) Transfected cells from culture flasks were scraped into 5 ml of 5 mM Tris-HCl, 5 mM EDTA, pH 7.5, and lysed by sonication. The cell lysates were centrifuged at 1000 rpm for 5 min at 4° C., and the supernatant was centrifuged at 30,000× g for 20 min at 4° C. The pellet was suspended in 50 mM Tris-HCl, 1 mM MgCl2, and 0.1% ascorbic acid at pH 7.5. Binding of the α1 antagonist [^3H]prazosin (0.5 nM, specific activity 76.2 Ci/mmol) to membrane preparations of LM(tk−) cells was done in a final volume of 0.25 ml and incubated at 37° C. for 20 min. Nonspecific binding was determined in the presence of 10 μM phentolamine. The reaction was stopped by filtration through GF/B filters using a cell harvester.

The target of series [2] is T2, α1B Human Adrenergic Receptor (Homo sapiens, UniProt P35368).
T2 construct: The entire coding region of α1B (1563 bp); expressed in transfected cells
T2 sequence (P35368 1-520): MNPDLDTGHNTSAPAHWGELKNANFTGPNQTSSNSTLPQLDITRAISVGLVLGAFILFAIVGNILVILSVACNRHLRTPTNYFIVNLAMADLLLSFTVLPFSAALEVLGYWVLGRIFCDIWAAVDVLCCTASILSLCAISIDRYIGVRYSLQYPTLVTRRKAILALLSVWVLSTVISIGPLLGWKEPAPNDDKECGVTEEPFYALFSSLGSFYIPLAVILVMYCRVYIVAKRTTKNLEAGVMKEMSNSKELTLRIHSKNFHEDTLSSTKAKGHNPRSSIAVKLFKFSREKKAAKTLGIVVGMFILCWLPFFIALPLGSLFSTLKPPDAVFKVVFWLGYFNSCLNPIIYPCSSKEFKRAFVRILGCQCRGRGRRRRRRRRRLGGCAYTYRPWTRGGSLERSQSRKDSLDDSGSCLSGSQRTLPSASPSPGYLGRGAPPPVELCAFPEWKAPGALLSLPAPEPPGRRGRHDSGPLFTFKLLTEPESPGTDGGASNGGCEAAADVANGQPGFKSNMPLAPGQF
Put plainly: Radioligand binding, [3H]prazosin, cloned human α1B adrenergic receptor. The procedure: as §1, §2
α1B Human Adrenergic Receptor:
The construct involved ligating the full-length containing EcoRI brainstem cDNA fragment from λ ZapII into the expression vector. Stable cell lines were selected as described above.
as §3, §4

Series [3] concerns the target T3, α1C Human Adrenergic Receptor (Homo sapiens, UniProt P35348).
T3 construct: The entire coding region of α1C (1401 bp); expressed in transfected cells
T3 sequence (P35348 1-466): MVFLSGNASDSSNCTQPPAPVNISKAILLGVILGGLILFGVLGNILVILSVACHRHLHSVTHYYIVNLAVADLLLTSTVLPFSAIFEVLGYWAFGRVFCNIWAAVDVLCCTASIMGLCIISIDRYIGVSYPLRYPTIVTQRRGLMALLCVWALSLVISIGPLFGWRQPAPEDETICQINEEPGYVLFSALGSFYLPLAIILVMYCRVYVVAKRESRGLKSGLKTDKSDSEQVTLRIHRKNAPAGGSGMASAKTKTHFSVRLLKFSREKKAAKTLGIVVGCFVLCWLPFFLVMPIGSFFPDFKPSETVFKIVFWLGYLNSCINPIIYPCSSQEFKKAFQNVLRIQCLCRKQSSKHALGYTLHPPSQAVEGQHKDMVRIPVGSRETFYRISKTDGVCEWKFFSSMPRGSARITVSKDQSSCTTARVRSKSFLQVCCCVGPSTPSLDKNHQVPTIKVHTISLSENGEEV
Put plainly: Radioligand binding, [3H]prazosin, cloned human α1C adrenergic receptor. Here is the method:
as §1, §2
α1C Human Adrenergic Receptor:
The construct involved ligating three partial overlapping fragments: a 5′, 0.6 kb HincII genomic clone, a central 1.8 EcoRI hippocampal cDNA clone, and a 3′ 0.6Kb PstI genomic clone. The hippocampal cDNA fragment overlaps with the 5′ and 3′ genomic clones so that the HincII and PstI sites at the 5′ and 3′ ends of the cDNA clone, respectively, were utilized for ligation. This full-length clone was cloned into the KpnI site of the expression vector, using the 5′ and 3′ KpnI sites of the fragment, derived from vector (i.e., pBluescript) and 3′-untranslated sequences, respectively. Stable cell lines were selected as described above.
as §3, §4

The mark [4] stands for this setting: cloned human α1A receptor, LM(tk−) cell membranes, read-out: pKi alpha-1 1a (converted).
Setting [5] is: cloned human α1B receptor, LM(tk−) cell membranes, read-out: pKi alpha-1 1b (converted).
The mark [6] stands for this setting: cloned human α1C receptor, LM(tk−) cell membranes, read-out: pKi alpha-1 1c (converted).
Where [7] appears, read: cloned human receptor, LM(tk-) cell membranes, mean, read-out: PKi alpha-1 1a (converted).
Where [8] appears, read: cloned human receptor, LM(tk-) cell membranes, mean, read-out: PKi alpha-1 1b (converted).
[9] abbreviates: cloned human receptor, LM(tk-) cell membranes, mean, read-out: PKi alpha-1 1c (converted).

Read-outs that look alike come from different tables or passages of the source.

`CCNC(=O)C1=C(CC)NC(COCCN=[N+]=[N-])=C(C(=O)NCCCN2CCC(c3ccccc3)(c3ccccc3)CC2)C1c1ccc([N+](=O)[O-])cc1` (stereo not shown) [Example 145, 2-((2-Azidoethyl)oxy)methyl-6-methyl-6-ethyl-5-(N-ethyl) carboxamido-1,4-dihydro-4-(4-nitro)phenyl-3-(N-(3-(4,4-diphenylpiperidin-1-yl)propyl))carboxamidopyridine] showed a melting point of 82 to 87 °C. Also, the Ki in series [1] (setting [4]) is 380 nM. Also, in series [2] (setting [5]), the Ki is 324 nM. Besides, the Ki in series [3] (setting [6]) was 6.17 nM.

For `CC1=C(C(N)=O)C(c2ccc([N+](=O)[O-])cc2)C(C(=O)NCCCN2CCC(c3ccccc3)(c3ccccc3)CC2)=C(COCCN=[N+]=[N-])N1` (stereo not shown) [Example 154, 2-((2-Azidoethyl)oxy)methyl-5-carboxamido-1,4-dihydro-6-methyl-4-(4-nitro)phenyl-3-(N-(3-(4,4-diphenylpiperidin-1-yl)propyl))carboxamidopyridine], the melting point was 90 to 95 °C (dec.). Moreover, the Ki in series [1] (setting [4]) was 112 nM. In series [2] (setting [5]), the Ki was 87.1 nM. Moreover, the Ki in series [3] (setting [6]) is 1.82 nM.

Molecule `CNC(=O)C1=C(C)NC(C)=C(C(=O)NCCCN2CCC(C(=O)OC)(c3ccccc3)CC2)C1c1ccc2c(c1)OCCO2` (stereo not shown) [Example 164, 4-(3,4-Ethylenedioxyphenyl)-1,4-Dihydro-3-{N-[3-(4-methoxycarbonyl-4-phenylpiperidin-1-yl)propyl]}carboxamido-2,6-dimethyl-5-[(N-methyl)carboxamido]pyridine] had a melting point of 101 to 104 °C. Also, in series [1] (setting [7]), the Ki is 2950 nM. The Ki in series [2] (setting [8]) was 1780 nM. Moreover, in series [3] (setting [9]), the Ki was 22.9 nM.

Turning to `CCC1=C(C(=O)NC)C(c2ccc([N+](=O)[O-])cc2)C(C(=O)NCCCN2CCC(C(c3ccccc3)c3ccccc3)CC2)=C(CC)N1` (stereo not shown) [Example 109, 2,6-Diethyl-1,4-dihydro-5-(N-methyl) carboxamido-4-(4-nitrophenyl)-3-{-[13-(4-diphenylmethylpiperidin-1-yl)propyl]}carboxamidopyridine], the melting point was 128 °C (dec.). Besides, the Ki in series [1] (setting [4]) was 851 nM. Further, the Ki in series [2] (setting [5]) is 275 nM. Further, the Ki in series [3] (setting [6]) is 66.1 nM.

With `CCC1=C(C(=O)NC)C(c2ccc([N+](=O)[O-])cc2)C(C(=O)NCCCN2CCC(C(N)=O)(c3ccccc3)CC2)=C(CC)N1` (stereo not shown) [Example 110, 3-{N-[3-(4-Carboxamido-4-phenylpiperidin-1-yl)propyl]}carboxamido-2,6-diethyl-1,4-dihydro-5-(N-methyl)carboxamido-4-(4-nitrophenyl)pyridine], the melting point was 124 °C (dec.). Further, in series [1] (setting [4]), the Ki is 17800 nM. In addition, the Ki in series [2] (setting [5]) is 31600 nM. Moreover, the Ki in series [3] (setting [6]) is 1550 nM.

For the molecule `CCC1=C(C(=O)O)C(c2ccc([N+](=O)[O-])cc2)C(C(=O)NCCCN2CCC(c3ccccc3)(c3ccccc3)CC2)=C(COC)N1` (stereo not shown) [Example 136, 6-Ethyl-1,4-dihydro-2-(methyloxy)methyl-4-(4-nitro)phenyl-3-(N-(3-(4,4-diphenylpiperidin-1-yl)propyl))carboxamidopyridine-5-carboxylic acid], the melting point was 120 to 125 °C (dec.). The Ki in series [1] (setting [4]) was 832 nM. Further, the Ki in series [2] (setting [5]) is 407 nM. For the same molecule, the Ki in series [3] (setting [6]) was 3.47 nM.

As to `CCC1=C(C(=O)NC)C(c2ccc([N+](=O)[O-])cc2)C(C(=O)NCCCN2CCC(c3ccccc3)(c3ccc(OC)cc3)CC2)=C(CC)N1` (stereo not shown) [Example 107], the melting point was 133 °C (dec.). For the same molecule, the Ki in series [1] (setting [4]) is 871 nM. Besides, the Ki in series [2] (setting [5]) is 1000 nM. Besides, the Ki in series [3] (setting [6]) is 5.89 nM.

As for `CCOC(=O)C1(c2ccccc2)CCN(CCCNC(=O)C2=C(COCCN=[N+]=[N-])NC(CC)=C(C(=O)NC)C2c2ccc([N+](=O)[O-])cc2)CC1` (stereo not shown) [Example 191, 2-[(2-Azidoethoxy)methyl]-3-{N-[3-(4-ethoxycarbonyl-4-phenyl-piperidin-1-yl)propyl]}carboxamido-1,4-dihydro-6-ethyl-5-(N-methyl)carboxamido-4-(4-nitrophenyl)pyridine], the melting point lay in the range of 67 to 68 °C. The Ki in series [1] (setting [7]) was 1950 nM. In addition, the Ki in series [2] (setting [8]) was 1350 nM. Further, in series [3] (setting [9]), the Ki is 8.13 nM.

`CCOC(=O)C1(c2ccccc2)CCN(CCCNC(=O)C2=C(CC)NC(CC)=C(C(=O)NC)C2c2ccc([N+](=O)[O-])cc2)CC1` (stereo not shown) [Example 181, 2,6-Diethyl-1,4-dihydro-3-{N-[3-(4-ethoxycarbonyl-4-phenylpiperidin-1-yl)propyl]}carboxamido-5-(N-methyl) carboxamido-4-(4-nitrophenyl)pyridine] came in with a melting point of 95 to 97 °C. For the same molecule, in series [1] (setting [7]), the Ki was 3470 nM. The Ki in series [2] (setting [8]) was 1070 nM. Further, the Ki in series [3] (setting [9]) is 4.07 nM.

Consider `CC1=C(C(N)=O)C(c2ccc([N+](=O)[O-])cc2)C(C(=O)NCCCN2CCC(c3ccccc3)(c3ccccc3)CC2)=C(CCCCCN)N1` (stereo not shown) [Example 169, 2-(5-Aminopentyl)-5-carboxamido-1,4-dihydro-6-methyl-4-(4-nitrophenyl)-3-{N-[3-(4,4-diphenylpiperidin-1-yl)propyl]}carboxamidopyridine], for which the melting point lay in the range of 75 to 78 °C. This molecule also showed a Ki in series [1] (PKi alpha-1 1a, cloned human receptor, LM(tk-) cell membranes, mean) of 513 nM. The molecule also gave a Ki in series [2] (PKi alpha-1 1b, cloned human receptor, LM(tk-) cell membranes, mean) of 229 nM. In addition, the Ki in series [3] (PKi alpha-1 1c, cloned human receptor, LM(tk-) cell membranes, mean) is 7.24 nM.
